Measurements as given in patent US12685726B2, “Sulfoximines as inhibitors of NaV1.8” (Gruenenthal GmbH, priority 2022, dated 2026).

Biological target: T1, human NaV 1.8 (Homo sapiens, UniProt Q9Y5Y9)
T1 construct: expressed in transfected cells; host or cells: HEK (recombinant cell line)
Experiment: Automated whole-cell patch clamp (Qube384) voltage-clamp recordings of sodium currents in HEK-NaV1.8 cell line
Assay type: cell-based
Conditions: read-out: Potency category (human NaV 1.8 IC50)
Outline: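 HEK cells expressing NaV1.8 with b3, whole-cell automated voltage clamp at room temperature or 19° C.; CsF-based internal, pH 7.4 external. State-dependent (−120 mV, V1/2 4 s, −10 mV test pulses) and 10/20 Hz 40-pulse protocols; ~12 min compound, vehicle-corrected, IC50 by 4-parameter logistic fit.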

T1 sequence (Q9Y5Y9 whole entry): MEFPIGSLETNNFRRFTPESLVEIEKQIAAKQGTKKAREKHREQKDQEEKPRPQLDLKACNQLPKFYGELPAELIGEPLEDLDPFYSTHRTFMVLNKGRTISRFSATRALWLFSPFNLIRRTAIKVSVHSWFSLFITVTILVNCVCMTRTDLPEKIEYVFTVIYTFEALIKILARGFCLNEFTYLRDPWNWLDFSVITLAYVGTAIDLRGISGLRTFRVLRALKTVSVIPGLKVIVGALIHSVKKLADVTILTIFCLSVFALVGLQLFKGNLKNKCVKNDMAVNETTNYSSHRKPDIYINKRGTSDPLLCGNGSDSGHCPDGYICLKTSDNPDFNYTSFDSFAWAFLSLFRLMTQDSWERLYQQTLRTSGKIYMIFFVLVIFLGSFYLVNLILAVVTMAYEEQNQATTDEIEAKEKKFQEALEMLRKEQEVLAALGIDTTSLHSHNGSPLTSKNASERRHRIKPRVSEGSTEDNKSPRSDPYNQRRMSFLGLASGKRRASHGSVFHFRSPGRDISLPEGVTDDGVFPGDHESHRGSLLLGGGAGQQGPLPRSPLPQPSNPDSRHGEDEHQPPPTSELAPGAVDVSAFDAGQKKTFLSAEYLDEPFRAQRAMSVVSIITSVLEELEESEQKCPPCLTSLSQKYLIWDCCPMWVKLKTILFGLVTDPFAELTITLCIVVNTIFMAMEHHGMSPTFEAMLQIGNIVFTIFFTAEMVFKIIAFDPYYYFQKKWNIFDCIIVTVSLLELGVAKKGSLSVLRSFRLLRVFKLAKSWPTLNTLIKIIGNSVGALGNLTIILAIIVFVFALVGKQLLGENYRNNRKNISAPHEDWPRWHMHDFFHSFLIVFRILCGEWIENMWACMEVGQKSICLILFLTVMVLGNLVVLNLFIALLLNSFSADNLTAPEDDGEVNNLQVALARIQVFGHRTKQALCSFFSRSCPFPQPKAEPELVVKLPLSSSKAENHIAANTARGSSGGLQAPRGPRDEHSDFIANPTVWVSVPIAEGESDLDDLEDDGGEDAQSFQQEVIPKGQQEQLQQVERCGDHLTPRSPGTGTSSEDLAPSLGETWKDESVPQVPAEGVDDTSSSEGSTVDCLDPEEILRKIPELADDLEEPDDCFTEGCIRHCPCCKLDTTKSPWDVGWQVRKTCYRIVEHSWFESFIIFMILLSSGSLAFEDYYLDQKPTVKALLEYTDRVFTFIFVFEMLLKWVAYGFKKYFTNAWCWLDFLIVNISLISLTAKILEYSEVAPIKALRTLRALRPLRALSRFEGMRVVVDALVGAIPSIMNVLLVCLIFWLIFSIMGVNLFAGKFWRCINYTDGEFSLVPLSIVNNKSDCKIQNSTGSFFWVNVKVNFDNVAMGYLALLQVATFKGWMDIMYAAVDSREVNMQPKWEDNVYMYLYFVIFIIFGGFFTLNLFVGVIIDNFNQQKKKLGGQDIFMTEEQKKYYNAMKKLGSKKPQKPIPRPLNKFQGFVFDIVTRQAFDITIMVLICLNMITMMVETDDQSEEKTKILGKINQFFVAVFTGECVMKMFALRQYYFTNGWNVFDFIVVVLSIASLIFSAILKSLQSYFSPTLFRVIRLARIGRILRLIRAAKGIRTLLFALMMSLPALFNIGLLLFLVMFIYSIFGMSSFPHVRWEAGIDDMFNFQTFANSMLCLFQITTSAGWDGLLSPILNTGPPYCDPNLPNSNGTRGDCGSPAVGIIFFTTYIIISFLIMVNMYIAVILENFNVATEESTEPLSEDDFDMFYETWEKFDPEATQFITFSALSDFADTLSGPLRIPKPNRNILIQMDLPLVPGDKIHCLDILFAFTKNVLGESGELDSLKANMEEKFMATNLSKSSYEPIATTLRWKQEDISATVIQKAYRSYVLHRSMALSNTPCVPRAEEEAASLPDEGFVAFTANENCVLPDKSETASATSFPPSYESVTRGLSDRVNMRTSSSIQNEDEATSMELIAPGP

IC50 | SMILES
≤ 100 nM | CS(=N)(=O)c1cc(NC(=O)c2c(C(F)(F)F)c(OC(F)F)nn2CC2CCC(F)(F)C2)ccn1 (stereo not shown) [Example 33, 1-((3,3-Difluorocyclopentyl)methyl)-3-(difluoromethoxy)-N-(2-(S-methylsulfonimidoyl)pyridin-4-yl)-4-(trifluoromethyl)-1H-pyrazole-5-carboxamide]
≤ 100 nM | CC1(Cn2nc(C3(F)CC3)c(C(F)(F)F)c2C(=O)Nc2cccc([S@](C)(=O)=NC(=O)CO)c2)CC(F)(F)C1 [Example 151b]
≤ 100 nM | CS(=N)(=O)c1cc(NC(=O)c2c(C(F)(F)F)c(C3CC3)nn2C[C@@H]2CCC(F)(F)C2)ccn1 (single isomer, unassigned) [Example 17c]
≤ 100 nM | CS(=N)(=O)c1cc(NC(=O)c2c(C(F)(F)F)c(C3CC3)nn2CC2C(F)(F)C23CCC3)ccn1 (single isomer, unassigned) [Example 136b, 3-Cyclopropyl-1-((2,2-difluorospiro[2.3]hexan-1-yl)methyl)-N-(2-(S-methylsulfonimidoyl)pyridin-4-yl)-4-(trifluoromethyl)-1H-pyrazole-5-carboxamide]
≤ 100 nM | CS(=N)(=O)c1cc(NC(=O)c2c(C(F)(F)F)c(C3CC3)nn2C[C@H]2CCC(F)(F)C2)ccn1 (single isomer, unassigned) [Example 17b]
≤ 100 nM | CC1(Cn2nc(C(C)(C)F)c(C(F)(F)F)c2C(=O)Nc2ccnc(S(C)(=N)=O)c2)CC(F)(F)C1 (single isomer, unassigned) [Example 148b, 1-((3,3-Difluoro-1-methylcyclobutyl)methyl)-3-(2-fluoropropan-2-yl)-N-(2-(S-methylsulfonimidoyl)pyridin-4-yl)-4-(trifluoromethyl)-1H-pyrazole-5-carboxamide]
≤ 100 nM | CC1(Cn2nc(C34CC(F)(C3)C4)c(C(F)(F)F)c2C(=O)Nc2cccc(S(C)(=N)=O)c2)CC(F)(F)C1 (single isomer, unassigned) [Example 111a, 1-((3,3-difluoro-1-methylcyclobutyl)methyl)-3-(3-fluorobicyclo[1.1.1]pentan-1-yl)-N-(3-(S-methylsulfonimidoyl)phenyl)-4-(trifluoromethyl)-1H-pyrazole-5-carboxamide]
≤ 100 nM | Cc1c(C(C)(F)F)nn(CC2CCC(F)(F)CC2)c1C(=O)Nc1ccnc(S(C)(=N)=O)c1 (single isomer, unassigned) [Example 9a, 1-((4,4-difluorocyclohexyl)methyl)-3-(1,1-difluoroethyl)-4-methyl-N-(2-(S-methylsulfonimidoyl)pyridin-4-yl)-1H-pyrazole-5-carboxamide]
≤ 100 nM | CC1(Cn2nc(C3CC3)c(C(F)(F)F)c2C(=O)Nc2ccnc(S(C)(=N)=O)c2)CC(F)(F)C1 (single isomer, unassigned) [Example 1b, 3-cyclopropyl-1-((3,3-difluoro-1-methylcyclobutyl)methyl)-N-(2-(S-methylsulfonimidoyl)pyridin-4-yl)-4-(trifluoromethyl)-1H-pyrazole-5-carboxamide]
≤ 100 nM | CC1(Cn2nc(C34CC(F)(C3)C4)c(C(F)F)c2C(=O)Nc2cccc(S(C)(=N)=O)c2)CC(F)(F)C1 (single isomer, unassigned) [Example 113b, 1-((3,3-Difluoro-1-methylcyclobutyl)methyl)-4-(difluoromethyl)-3-(3-fluorobicyclo[1.1.1]pentan-1-yl)-N-(3-(S-methylsulfonimidoyl)phenyl)-1H-pyrazole-5-carboxamide]
≤ 100 nM | CS(=N)(=O)c1cc(NC(=O)c2c(C(F)(F)F)c(C3CC3)nn2CC2CCC(F)(F)C2)ccn1 (single isomer, unassigned) [Example 7b, 3-cyclopropyl-1-((3,3-difluorocyclopentyl)methyl)-N-(2-(S-methylsulfonimidoyl)pyridin-4-yl)-4-(trifluoromethyl)-1H-pyrazole-5-carboxamide]
≤ 100 nM | CC1(Cn2nc(C3(C)CC3)c(C(F)(F)F)c2C(=O)Nc2ccnc(S(C)(=N)=O)c2)CC(F)(F)C1 (single isomer, unassigned) [Example 69b, 1-((3,3-difluoro-1-methylcyclobutyl)methyl)-3-(1-methylcyclopropyl)-N-(2-(S-methylsulfonimidoyl)pyridin-4-yl)-4-(trifluoromethyl)-1H-pyrazole-5-carboxamide]
≤ 100 nM | CC1(Cn2nc(C3CC3(F)F)c(C(F)(F)F)c2C(=O)Nc2ccnc(S(C)(=N)=O)c2)CC(F)(F)C1 (single isomer, unassigned) [Example 63c, 1-((3,3-Difluoro-1-methylcyclobutyl)methyl)-3-(2,2-difluorocyclopropyl)-N-(2-(S-methylsulfonimidoyl)pyridin-4-yl)-4-(trifluoromethyl)-1H-pyrazole-5-carboxamide]
≤ 100 nM | CS(=N)(=O)c1cc(NC(=O)c2c(C(F)(F)F)c(C3CC3)nn2CC23CC2CC(F)(F)C3)ccn1 (single isomer, unassigned) [Example 95a, 3-Cyclopropyl-1-((3,3-difluorobicyclo[3.1.0]hexan-1-yl)methyl)-N-(2-(S-methylsulfonimidoyl)pyridin-4-yl)-4-(trifluoromethyl)-1H-pyrazole-5-carboxamide]
≤ 100 nM | C[C@H]1C[C@@H]1c1nn(CC2(C)CC(F)(F)C2)c(C(=O)Nc2ccnc([S@@](C)(=N)=O)c2)c1C(F)(F)F (single isomer, unassigned) [Example 65b, 1-((3,3-Difluoro-1-methylcyclobutyl)methyl)-3-((trans)-2-methylcyclopropyl)-N-(2-(S-methylsulfonimidoyl)pyridin-4-yl)-4-(trifluoromethyl)-1H-pyrazole-5-carboxamide]
≤ 100 nM | CC1(Cn2nc(C(C)(C)C)c(C(F)(F)F)c2C(=O)Nc2ccnc(S(C)(=N)=O)c2)CC(F)(F)C1 (single isomer, unassigned) [Example 143a, 3-(Tert-butyl)-1-((3,3-difluoro-1-methylcyclobutyl)methyl)-N-(2-(S-methylsulfonimidoyl)pyridin-4-yl)-4-(trifluoromethyl)-1H-pyrazole-5-carboxamide]
≤ 100 nM | C[S@](=N)(=O)c1cc(NC(=O)c2c(C(F)(F)F)c(C3CC3)nn2C[C@H]2C(F)(F)C23CC3)ccn1 (single isomer, unassigned) [Example 79b, 3-cyclopropyl-1-((2,2-difluorospiro[2.2]pentan-1-yl)methyl)-N-(2-(S-methylsulfonimidoyl)pyridin-4-yl)-4-(trifluoromethyl)-1H-pyrazole-5-carboxamide]
≤ 100 nM | C[S@@](=N)(=O)c1cc(NC(=O)c2c(C(F)(F)F)c(C3CC3)nn2C[C@H]2C(F)(F)C23CC3)ccn1 (single isomer, unassigned) [Example 79a, 3-cyclopropyl-1-((2,2-difluorospiro[2.2]pentan-1-yl)methyl)-N-(2-(S-methylsulfonimidoyl)pyridin-4-yl)-4-(trifluoromethyl)-1H-pyrazole-5-carboxamide]
≤ 100 nM | C[S@@](=N)(=O)c1cc(NC(=O)c2c(C(F)(F)F)c(C3CC3)nn2C[C@]2(C)C[C@@H](C(F)(F)F)C2)ccn1 (single isomer, unassigned) [Example 86c, 3-cyclopropyl-1-(((cis)-1-methyl-3-(trifluoromethyl)cyclobutyl)methyl)-N-(2-(S-methylsulfonimidoyl)pyridin-4-yl)-4-(trifluoromethyl)-1H-pyrazole-5-carboxamide]
≤ 100 nM | CC1(Cn2nc(C3CC(F)(F)C3)c(C(F)(F)F)c2C(=O)Nc2ccnc(S(C)(=N)=O)c2)CC(F)(F)C1 (single isomer, unassigned) [Example 57a, 1-((3,3-Difluoro-1-methylcyclobutyl)methyl)-3-(3,3-difluorocyclobutyl)-N-(2-(S-methylsulfonimidoyl)pyridin-4-yl)-4-(trifluoromethyl)-1H-pyrazole-5-carboxamide]
≤ 100 nM | CC1(Cn2nc(C3CC3)c(C(F)(F)F)c2C(=O)Nc2cncc(S(C)(=N)=O)c2)CC(F)(F)C1 (single isomer, unassigned) [Example 46a, 3-cyclopropyl-1-((3,3-difluoro-1-methylcyclobutyl)methyl)-N-(5-(S-methylsulfonimidoyl)pyridin-3-yl)-4-(trifluoromethyl)-1H-pyrazole-5-carboxamide]
≤ 100 nM | CC1(Cn2nc(C(C)(C)F)c(C(F)(F)F)c2C(=O)Nc2ccnc(S(C)(=N)=O)c2)CC(F)(F)C1 (single isomer, unassigned) [Example 148a, 1-((3,3-Difluoro-1-methylcyclobutyl)methyl)-3-(2-fluoropropan-2-yl)-N-(2-(S-methylsulfonimidoyl)pyridin-4-yl)-4-(trifluoromethyl)-1H-pyrazole-5-carboxamide]
≤ 100 nM | CS(=N)(=O)c1cc(NC(=O)c2c(C(F)(F)F)c(C3CC3)nn2CC2C(F)(F)C23CCC3)ccn1 (single isomer, unassigned) [Example 136d, 3-Cyclopropyl-1-((2,2-difluorospiro[2.3]hexan-1-yl)methyl)-N-(2-(S-methylsulfonimidoyl)pyridin-4-yl)-4-(trifluoromethyl)-1H-pyrazole-5-carboxamide]
≤ 100 nM | CS(=N)(=O)c1cc(NC(=O)c2c(C(F)(F)F)c(C3CC3)nn2CC2C3(CC3)C23CC3)ccn1 (single isomer, unassigned) [Example 80a, 3-cyclopropyl-1-(dispiro[2.0.24.13]heptan-7-ylmethyl)-N-(2-(S-methylsulfonimidoyl)pyridin-4-yl)-4-(trifluoromethyl)-1H-pyrazole-5-carboxamide]
≤ 100 nM | CC1(Cn2nc(C34CC(F)(C3)C4)c(C(F)(F)F)c2C(=O)Nc2ccnc(S(C)(=N)=O)c2)CC(F)(F)C1 (single isomer, unassigned) [Example 110b, 1-((3,3-Difluoro-1-methylcyclobutyl)methyl)-3-(3-fluorobicyclo[1.1.1]pentan-1-yl)-N-(2-(S-methylsulfonimidoyl)pyridin-4-yl)-4-(trifluoromethyl)-1H-pyrazole-5-carboxamide]
